# pEC50: −log10 of the molar value.
# System: TGF-b induced Endothelin-1 production
# Assay: ET-1 assay: inhibitory effect on TGF-b induced endothelin-1 production
# Format: cell-based
# Settings: Homo sapiens, Fibroblast; fibroblasts, stimulant (TGFb, serum, LPA etc), ET-1 in media by ELISA, 4-parameter fit
# Method: Assay of Inhibitory Effect on TGF-b Induced Endothelin-1 Production
# Fibroblasts (primary human lung and dermal, HFL-1, 3T3 etc) are seeded in 96-well plates at ˜15000 cells/well and serum starved for 0-48 hours. After media exchange, compounds serially diluted in DMSO are added to the cells. After a brief incubation of ˜30 min, stimulants (TGFb, serum, LPA etc) are added followed by further incubation for 16-48 hours. Media is then harvested and stored frozen in plate format for later endothelin-1 (ET-1) determination by ELISA. Toxicity measurements are made using the ATPlite kit (Perkin-Elmer). ET-1 is quantified using an ELISA kit (R&D Systems). The amount of ET-1 produced in the assay wells are back-calculated using the ELISA standard. The ability of a compound to inhibit ET-1 production is typically analyzed by fitting dose-response curves to a 4-parameter logistic function to obtain an EC50 value. A measure of cytotoxicity (CC50) is likewise reported from the same experiment using the ATPlite data.
# Compounds of some embodiments were prepared according to synthetic methods described herein and assay data obtained for EC50 against ET-1. The assay data obtained is presented in Table 2, in which A=less than 50 μM, B=greater than or equal to 50 μM and less than or equal to 200 μM; and C=greater than 200 μM.
row,SMILES,pEC50
1,O=c1cc(C(F)(F)F)c(-c2ccc(F)cc2)cn1-c1ccc(OC(F)(F)F)cc1 [Compound 205],3.70 to 4.30
2,Cc1cc(=O)n(-c2cccc(NC(N)=O)c2)cc1-c1cnn(C)c1 [Compound 628],> 4.30
3,O=c1ccc(-c2cn[nH]c2)cn1-c1ccc(Cl)cc1 [Compound 371],< 3.70
4,Cc1ccc(=O)n(Cc2ccccc2)c1 [Compound 78],< 3.70
5,Cc1cc(=O)n(-c2ccc(OC(F)(F)F)cc2)cc1C [Compound 367],< 3.70
6,CC(=O)c1ccc(=O)n(-c2cccc(F)c2)c1 [Compound 15],< 3.70
7,CCCCC(=O)Nc1cc(=O)n(-c2ccc(OC(F)(F)F)cc2)cc1-c1ccc(F)cc1 [Compound 107],< 3.70
8,Cn1cc(-c2cn(-c3ccc(C#N)cc3)c(=O)c3c2ccn3C)cn1 [Compound 597],< 3.70
9,Cc1cc(=O)n(-c2ccc(OC(F)(F)F)cc2)cc1-c1ccc2c(c1)OCC(=O)N2CCO [Compound 566],< 3.70
10,CCOc1ccc(-n2cc(-c3cnn(C)c3)c(OCCOCCOC)cc2=O)c(C)c1 [Compound 697],3.70 to 4.30
11,Cc1cc(=O)n(-c2ccc(C(F)(F)F)cc2)cc1-c1ccc(F)cc1 [Compound 173],< 3.70
12,CCOc1ccc(-n2cc(-c3cnn(C)c3)c(NCc3ccc(C#N)cc3)cc2=O)c(C)c1 [Compound 704],> 4.30
13,Cn1cc(-c2cn(-c3ccc(OC(F)(F)F)cc3)c(=O)c3ccc(C(F)(F)F)nc23)cn1 [Compound 39],> 4.30
14,Cc1ccc(=S)n(-c2ccc(F)cc2)c1 [Compound 336],< 3.70
15,Cc1cc(=O)n(-c2ccc(C(F)(F)F)cc2C)cc1-c1ccccc1 [Compound 170],> 4.30
16,CC(C)Oc1ccc(-n2cc(-c3ccc(S(N)(=O)=O)cc3)ccc2=O)cc1 [Compound 330],< 3.70
17,Cc1ccc(F)c(-c2ccccc2)c1 [Compound 440],< 3.70
18,CC(=O)Nc1cccc(-n2cc(C(C)=O)ccc2=O)c1 [Compound 18],< 3.70

row,SMILES,pEC50
1,O=c1c2cccnc2c(-c2ccc(F)cc2)cn1-c1ccc(OC(F)(F)F)cc1 [Compound 42],< 3.70
2,Cc1cc(=O)n(-c2ccc(OC(F)(F)F)cc2)cc1-c1ccc2c(c1)OC(C)(C)O2 [Compound 211],< 3.70
3,Cc1cc(=O)n(-c2cccc3c2OCCO3)cc1-c1cnn(C)c1 [Compound 231],3.70 to 4.30
4,Cc1cc(=O)n(-c2cccc(C(F)(F)F)c2)cc1-c1ccccc1 [Compound 163],> 4.30
5,CCn1ccc2c(=O)n(-c3ccc(OC(F)(F)F)cc3)cc(-c3cnn(C)c3)c21 [Compound 694],> 4.30
6,O=c1ccc(-c2ccccc2)cn1-c1ccc(F)cc1 [Compound 294],3.70 to 4.30
7,CCCOC(=O)Nc1cc(=O)n(-c2ccc(OC(F)(F)F)cc2)cc1-c1ccc(F)cc1 [Compound 105],< 3.70
8,N#Cc1ccc(-n2cc(-c3cn[nH]c3)c3cc[nH]c3c2=O)cc1 [Compound 608],3.70 to 4.30
9,Cc1cc(=O)n(-c2ccc(Cl)cc2)cc1-c1ccc(F)cc1 [Compound 181],< 3.70
10,O=c1c2c(c(-c3ccc(F)cc3)cn1-c1ccc(OC(F)(F)F)cc1)CCCC2 [Compound 32],< 3.70
11,Cn1cc(-c2cn(-c3ccc(OC(F)(F)F)cc3)c(=O)cc2OCCN2CCOCC2)cn1 [Compound 147],< 3.70
12,COc1cccc(-n2cc(Br)ccc2=O)c1 [Compound 266],< 3.70
13,O=c1ccc(C(F)(F)F)cn1-c1ccc(OC(F)(F)F)cc1 [Compound 275],< 3.70
14,COc1cc(-n2cc(-c3cnn(C)c3)c(C)cc2=O)cc(OC)c1OC [Compound 221],< 3.70
15,O=c1cc(OCCN2CCCC2)c(-c2ccc(F)cc2)cn1-c1ccc(OC(F)(F)F)cc1 [Compound 93],> 4.30
16,Cn1cc(-c2cn(-c3ccc(OC(F)(F)F)cc3)c(=O)c3nc[nH]c23)cn1 [Compound 57],< 3.70
17,CCC(=O)Nc1cc(=O)n(-c2ccc(OC(F)(F)F)cc2)cc1-c1ccc(F)cc1 [Compound 106],< 3.70
18,Cc1cc(=O)n(-c2ccccc2)cc1-c1ccccc1 [Compound 165],3.70 to 4.30
